Values quoted from earlier work as cited in patent US20240000793A1, “OPHTHALMIC COMPOSITION CONTAINING LEVOFLOXACIN AND KETOROLAC, METHOD FOR THE PREPARATION AND USE THEREOF” (NTC S.R.L., priority 2020, published 2024).

Assays:
[1] = recent studies
[2] = versus pH

Compound | Time in the eye at levels above the minimum inhibitory concentration (MIC) [1] | Solubility profile [2]
C[C@H]1COc2c(N3CCN(C)CC3)c(F)cc3c(=O)c(C(=O)O)cn1c23 [Levofloxacin] | more than six hours | –
O=C(c1ccccc1)c1ccc2n1CCC2C(=O)O (centres unmarked) [Ketorolac tromethamine] | – | pH dependent trend, significantly increasing at pH value>6.0
